Reference: patent US11458189B2, “Cytoprotective drugs” (BALMES TRANSPLANTATION, priority 2017, dated 2022)

Tested on: Sprague Dawley rats
Assay: Survival in acute renal failure model (unilateral renal ischemia-reperfusion with contralateral nephrectomy)
Format: in vivo, rat
Settings: Allopurinol 3 mg/kg single iv injection 60 min before ischemia; up to 7 days after reperfusion; control group 29%
Protocol: The protocol is similar to the one described by Narayan P et al, Am J Physiol Renal Physiol, 311(2):F352-61, 2016 and was approved by an ethics committee. In summary, general anesthesia is induced in male Sprague Dawley rats (250-300 g) using sodium pentobarbital (60 mg/kg, ip) instead of ketamine/xylazine in the protocol described by Narayan P et al, Am J Physiol Renal Physiol, 311 (2): F352-61, 2016. A skin incision is made on the dorsal surface and the left kidney is exposed by incisions on the flank. The left renal pedicle is then isolated and clamped for 60 minutes using atraumatic vascular clamps. The kidneys are replaced in the abdominal cavity to maintain temperature and the incision is covered with gauze soaked in 0.9% saline. After the ischemia time (60 minutes), the clamps are released to begin reperfusion. Reperfusion is monitored (kidney color change) for 1 to 2 minutes and physiological saline (1 mL) is administered to prevent dehydration. Next, a right kidney nephrectomy is performed and the incisions are closed with sutures. The animals are kept at approximately 37° C. using a thermoregulated system during the operation. Buprenorphine (0.2 mg/kg sc) is administered before the animals are returned to their cages and once a day until 4 days after reperfusion. […]
The compounds Micafungin (0.25 mg/kg), Anidulafungin (0.35 mg/kg) or the combination of the compounds Micafungin (0.25 mg/kg) and Allopurinol (3 mg/kg) are administered solubilized in physiological saline as a single intravenous injection into the tail vein 60 (±15) minutes before the onset of ischemia. The volume of administration of the compounds is determined on the basis of the body weight (2 mL/kg) of each animal. […]
For each experiment the curve of the number of surviving animals versus the number of days post-ischemia-reperfusion (Kaplan-Meier curve) is shown. The x-axis is graduated from the first day =0 to the seventh day =6 The y-axis is graduated from 0% to 100% of the initial population of the analyzed group. […]

## Oc1ncnc2[nH]ncc12 [Allopurinol]
  Surviving animals at end of Kaplan-Meier curve (% of initial population of the group): 63%
